Values after ≈ are worked out from the molar mass of the structure shown. Read-outs that look alike come from different tables or passages of the source.
Key:
[1] = system: S. parasitica T-1; experiment: Agar-dilution susceptibility testing (filamentous hyphae); type: cell-based, Saprolegnia parasitica; conditions: S. parasitica T-1, 24 h, 15-20° C., geometric mean of three tests; for MIC: Saprolegnia parasitica, read-out: MIC, Agar-dilution
Experimental: (§1) Two methods were used, each suitable for a different phase of the asexual life cycle of Saprolegnia spp.: i) the broth macrodilution method, for determination of susceptibility of zoospores and cysts; and ii) the agar-dilution method for determination of susceptibility of filamentous hyphae. Each compound was tested three times in each method. Malachite Green was used as positive control.
Twofold serial dilutions were prepared in double distillated sterile water with final drug concentrations ranging from 10,000 to 0.01 mg/L in a final volume of 1.0 ml. […] The mixture was vortexed, and poured into small plates. After agar solidification a small measured piece, taken from a 7-10 day old culture of S. parasitica T-1 on GP-PS medium was placed upside down on each plate. The plates were incubated at room temperature (15-20° C.) for 24 h.

[2] = system: S. parasitica CBS 540.67; experiment: as above; type: cell-based, Saprolegnia parasitica; conditions: S. parasitica CBS 540.67, 24 h, 15-20° C., geometric mean of three tests; for MIC: Saprolegnia parasitica, CBS540, read-out: MIC, Agar-dilution
[3] = system: S. parasitica; experiment: In vitro susceptibility of S. parasitica in Table 4; type: cell-based, Saprolegnia parasitica; conditions: for MIC: Saprolegnia parasitica
Experimental: The in vitro susceptibility of Saprolegnia parasitica T-1 and S. parasitica CBS 540.67 to various compounds was determined by the agar-dilution and broth macrodilution methods.
as §1
(§2) This method is a modification of the method used for molds according to EUCAST 7.1 (European Committee on Antibiotic Susceptibility Testing) and CLSI/NCCLS M27-A2 (Clinical Laboratory Standards Institute/National Committee for Clinical Laboratory Standards). For inoculum preparation, S. parasitica isolates were cultured on GP-PS for 7 days with sterile clover seeds at 18° C. Clover seeds (˜20) covered with mycelium were removed and added to 40 ml of RPMI-1640 broth medium (Sigma; prepared according to NCCLS instructions) and incubated at 18° C. for 4-7 days. Cysts and zoospores free from hyphae were collected, and an inoculum of ˜10^3 CFU/ml as measured by hemacytometer counting, was prepared in RPMI. Fluorescent Brightener 28 stock solution was prepared by adding 40% KOH gradually to a 10 mg/ml solution in water, until it was clear, then it was filtered twice through a 0.2 μm cellulose acetate nonpyrogenic sterile filter (Schleicher & Schuell, Dassel, Germany).
(§3) Twofold serial dilutions of the resulting stock solutions were set in RPMI-1640 medium in a volume of 0.1 ml. Final drug concentrations in the test tubes ranged from 1×10^4 to 0.01 mg/L. Inoculum of 0.9 ml was added to each of a sterile tube containing 0.1 ml of the serially diluted drug. Two tubes containing drug-free medium and two tubes containing drug-free inoculum were used as controls. The inoculated tubes were incubated at room temperature (15-20° C.) for 24 h. The growth in each tube was then evaluated visually.
This method is a modification of the method presented by Bailey (Bailey, T. A. (1983) Prog. Fish Cult. 45:24-27), and was used for the susceptibility testing of Saprolegnia hyphae. Twofold serial dilutions were prepared in double distillated sterile water with final drug concentrations ranging from 10,000 to 0.01 mg/L in a final volume of 1.0 ml. Melted (56° C.) RPMI-1640 agar medium (Sigma) was prepared according to NCCLS instructions, and then added to each tube containing drug or water control. The mixture was vortexed, and poured into small plates. After agar solidification a small measured piece, taken from a 7-10 day old culture of S. parasitica T-1 on GP-PS medium was placed upside down on each plate. The plates were incubated at room temperature (15-20° C.) for 24 h.

[4] = system: tilapia; experiment: in vivo
Experimental: (§4) LC50 values were determined by static short-term tests as a measure of the relative acute lethal toxicity for tilapia (Standard methods for the evaluation of water and wastewater (1985) 16th ed. American Public Health Association, Washington, D.C. p. 689-819).
(§5) Hybrid tilapia (Oreochromis niloticus X Oreochromis aureus) having an average weight of 20 g, were kept in 100 liter polyethylene tanks at a density of 1 fish per 10 liters, at a constant temperature of 21° C. for three weeks before the initiation of the experiment by addition of a test compound to each tank. […] For the latter experiments, fish were acclimated to the required temperature for three weeks prior to addition of the test compound to the tank. Fish were treated with 5 different concentrations of each test compound, determined according to the MIC values of each compound.
(§6) Mortality of fish was recorded up to 96 h. Water parameters (O2, NH4^+, NO2^−, pH and Cl^−) were monitored throughout the experiment and were maintained within acceptable limits. The presented results are the mean of two separate experiments.

[5] = system: S. parasitica CBS 540.67; experiment: Broth macrodilution susceptibility testing (zoospores and cysts); type: cell-based, Saprolegnia parasitica; conditions: S. parasitica CBS 540.67, 24 h, 15-20° C., geometric mean of three tests; for MIC: Saprolegnia parasitica, CBS540, read-out: MIC, Macrodilution
Experimental: as §1
as §2, with “Clover seeds (˜20) covered with mycelium were removed and added to 40 ml of RPMI-1640 broth medium (Sigma; prepared according to NCCLS instructions) and incubated at 18° C. for 4-7 days.” left out
as §3, with “Final” for “Twofold serial dilutions of the resulting stock solutions were set in RPMI-1640 medium in a volume of 0.1 ml. Final”

[6] = system: S. parasitica T-1; experiment: as above; type: cell-based, Saprolegnia parasitica; conditions: S. parasitica T-1, 24 h, 15-20° C., geometric mean of three tests; for MIC: Saprolegnia parasitica, read-out: MIC, Macrodilution
Experimental: as §1
as §2, with “Clover seeds (˜20) covered with mycelium were removed and added to 40 ml of RPMI-1640 broth medium (Sigma; prepared according to NCCLS instructions) and incubated at 18° C. for 4-7 days.” left out
as §3, with “Final” for “Twofold serial dilutions of the resulting stock solutions were set in RPMI-1640 medium in a volume of 0.1 ml. Final”

[7] = in vivo; conditions: hybrid tilapia (Oreochromis niloticus X Oreochromis aureus), in vivo, LC50
Experimental: as §4, §5, §6

[8] = method and isolate not separated, read-out: MIC
[9] = Table 4 summary, read-out: Activity in vitro (MIC), value

## C[C@@H]1[C@H](O)[C@@H](C)/C=C/C=C/C=C/C=C/C=C/C=C/C=C/[C@H](O[C@@H]2O[C@H](C)[C@@H](O)[C@H](N)[C@@H]2O)C[C@@H]2O[C@](O)(C[C@@H](O)C[C@@H](O)[C@H](O)CC[C@@H](O)C[C@@H](O)CC(=O)O[C@H]1C)C[C@H](O)[C@H]2C(=O)O [Amphotericin B]
[1]
  MIC, Agar-dilution: 5 µg/mL (≈ 5.41 µM)
[2]
  MIC, Agar-dilution: 2.5 µg/mL (≈ 2.71 µM)
[3]; Table 4 summary
  Activity in vitro (MIC), grade: High
  Activity in vitro (MIC), value: (0.1-0.5 mg/L)
[4]; Table 4 summary
  Toxicity: Moderate (moderate = 50-200 ppm)
[5]
  MIC, Macrodilution: 0.25 mg/L (≈ 0.271 µM)
[6]
  MIC, Macrodilution: 0.5 mg/L (≈ 0.541 µM)

## CCCCCCCCCCCCCCCC[N+](C)(C)C.[Br-] [CTAB]
[1]
  MIC, Agar-dilution: 10 µg/mL
[2]
  MIC, Agar-dilution: 50 µg/mL
[5]
  MIC, Macrodilution: 5 mg/L
[6]
  MIC, Macrodilution: 5 mg/L

## C[C@@H]1CC[C@@]2(OC1)O[C@H]1[C@@H](O)[C@H]3[C@@H]4CC[C@H]5C[C@@H](O[C@@H]6O[C@H](CO)[C@H](O[C@@H]7O[C@H](CO)[C@@H](O)[C@H](O[C@@H]8OC[C@@H](O)[C@H](O)[C@H]8O)[C@H]7O[C@@H]7O[C@H](CO)[C@H](O)[C@H](O[C@@H]8O[C@H](CO)[C@@H](O)[C@H](O)[C@H]8O)[C@H]7O)[C@H](O)[C@H]6O)[C@H](O)C[C@]5(C)[C@H]4CC[C@]3(C)[C@H]1[C@@H]2C [Digitonin]
[1]
  MIC: 10 µg/mL (≈ 8.13 µM)
[2]
  MIC: 20 µg/mL (≈ 16.3 µM)
[3]; [8]
  MIC: ≤ 10 µg/mL
[5]
  MIC: 2.5 µg/mL (≈ 2.03 µM)
[6]
  MIC: 2.5 µg/mL (≈ 2.03 µM)

## C=CCOC(Cn1ccnc1)c1ccc(Cl)cc1Cl (stereo not shown) [Enilconazole]
[1]
  MIC: 5 µg/mL (≈ 16.8 µM)
[2]
  MIC: 5 µg/mL (≈ 16.8 µM)
[5]
  MIC: 1 µg/mL (≈ 3.36 µM)
[6]
  MIC: 1 µg/mL (≈ 3.36 µM)

## O=S(=O)([O-])c1cc(Nc2nc(Nc3ccccc3)nc(N(CCO)CCO)n2)ccc1C=Cc1ccc(Nc2nc(Nc3ccccc3)nc(N(CCO)CCO)n2)cc1S(=O)(=O)[O-].[Na+].[Na+] [Fluorescent Brightener 28]
[1]
  MIC, Agar-dilution: 5 µg/mL
[2]
  MIC, Agar-dilution: 5 µg/mL
[5]
  MIC, Macrodilution: 2 mg/L
[6]
  MIC, Macrodilution: 1 mg/L

## OO [Hydrogen peroxide]
[3]; [8]
  MIC: ≤ 10 µg/mL
[3]; [9]
  MIC: 10 µg/mL (≈ 294 µM)
[3]; Table 4 summary
  Activity in vitro (MIC), grade: High
[4]; in vivo
  Toxicity: Moderate (key: High: high = 50 ppm; Moderate: moderate = 50-200 ppm; Low: low = >1000 ppm)
[7]
  LC50: 75 µg/mL (≈ 2200 µM)
[5]
  MIC: 8 µg/mL (≈ 235 µM)
[6]
  MIC: 10 µg/mL (≈ 294 µM)

## O=[N+]([O-])C(Br)(CO)CO [Pyceze ®]
[1]
  MIC: 100 µg/mL (≈ 500 µM)
[2]
  MIC: 200 µg/mL (≈ 1000 µM)
[3]; [9]
  MIC: 100 µg/mL (≈ 500 µM)
[4]; Table 4 summary
  Toxicity: Moderate (moderate = 50-200 ppm)
[4]; tilapia LC50 versus S. parasitica MIC
  LC50 values compared with respective MIC values: lower, similar or insignificantly different
[5]
  MIC: 100 µg/mL (≈ 500 µM)
[6]
  MIC: 100 µg/mL (≈ 500 µM)

## CCCCCCCCCCCCOS(=O)(=O)[O-].[Na+] [SDS, Sodium dodecylsulfate]
[1]
  MIC: 500 µg/mL
[2]
  MIC: 500 µg/mL
[5]
  MIC: 250 µg/mL
[6]
  MIC: 100 µg/mL

## [Cl-].[Na+] [Sodium chloride]
[3]; Table 4 summary
  Activity in vitro (MIC), value: Low (30,000 mg/L
[5]
  MIC, Macrodilution: 30,000 mg/L
[6]
  MIC, Macrodilution: 30,000 mg/L

## O=C([O-])[O-].O=C([O-])[O-].OO.OO.OO.[Na+].[Na+].[Na+].[Na+] [Sodium percarbonate]
[3]; Table 4 summary
  Activity in vitro (MIC), grade: High
  Activity in vitro (MIC), value: (10 mg/L)
[4]; Table 4 summary
  Toxicity: High (in (high = 50 ppm)
[5]
  MIC, Macrodilution: 2.5 mg/L
[6]
  MIC, Macrodilution: 5 mg/L

## Triton X-100
[1]
  MIC, Agar-dilution: 200 µg/mL
[2]
  MIC, Agar-dilution: 200 µg/mL
[5]
  MIC, Macrodilution: 100 mg/L
[6]
  MIC, Macrodilution: 50 mg/L

## Tween ® 80
[1]
  MIC, Agar-dilution: 200 µg/mL
[2]
  MIC, Agar-dilution: 200 µg/mL
[5]
  MIC, Macrodilution: 100 mg/L
[6]
  MIC, Macrodilution: 100 mg/L
